In article PMC12810539, “EGFR-targeted gadolinium contrast agents for enhanced molecular magnetic resonance imaging of tumors” (The Journal of Biological Chemistry, 2025):

How the values were obtained:
[1] = system: MDA-MB-231, A549, SGC-7901, SW480 and U138 MG cells; experiment: In vitro MR imaging of labelled tumor cells, with and without C225; format: cell-based, human; details: for MRI signal of cells pretreated with versus without C225: C225 preincubation 12 h, then 50 μM Gd for 24 h, all tested cell lines; for MR enhancement effect in MDA-MB-231, A549, SGC-7901 and SW480 tumor cells / MR enhancement effect in U138MG cell line: 37 °C, 11.7 T MR microimaging of cell pellets
Description: For the in vitro MRI assay, MDA-MB-231, A549, SGC-7901, SW480, and U138 MG cells were seeded into 100 mm × 20 mm cell culture dishes at a density of approximately 1 × 10^6 cells per dish and incubated with EBP-Gd-DO3A, EBP-(Gd-DO3A)3 or Gadovist at a Gd concentration of 50 μM for 24 h at 37 °C. After the completion of the labelling, the cells were washed with PBS 3 times and collected into 1.5 mm-i.d. capillary tubes that were centrifuged at 1400 rpm for 5 min to enable cells to be well packed in the bottom of the capillary for the MRI. The in vitro MRI experiments were performed on an 11.7 T Bruker NMR spectrometer that functioned as an MR microimaging system with a maximum gradient strength of 1.0 T/m. A linear 15-mm-i.d birdcage coil was used for radiofrequency transmission and signal reception. The parameters used for acquiring images were TR = 500 ms, TE = 5.2 ms, FOV = 12 × 12 mm^2, matrix = 96 × 96, flip angle = 90°, slice thickness/gap = 0.8/0.2 mm and number of averages = 4.
The C225-preincubated cells described above were imaged with MRI to observe the contrast enhancement effects. The method used for the MR imaging of cell pellets was the same as that for the in vitro MR imaging of the conjugates described above.

[2] = In vivo biodistribution: plasma, kidney, liver, heart (ICP-MS); design: species or system SCID mice; details: for Gd content in the kidneys / plasma Gd level over time: tumor-bearing SCID mice, ICP-MS; for Gd content in the kidneys: mean ± SD, 6 animals per group; for plasma Gd level over time: 0.25-48 h
Description: (§1) The 6- to 8-week-old male non-obese diabetic (NOD)/severe-combined immunodeficient (SCID) mice were used to establish MDA-MB-231 (EGFR-overexpressing) and U138 MG (non-EGFR-overexpressing) xenograft models ([35]). The mice were obtained from the Experimental Animal Center of Tongji Medical College, Huazhong University of Science and Technology, and all the experimental procedures involving animals were further approved by the Animal Care and Use Committee of Huazhong University of Science and Technology. The mice were housed separately in polycarbonate cages and provided with food and water. Tumors were grown under the skin by s.c. injection of 1 × 10^6-3 × 10^6 cells. The mice were randomized into groups for the biodistribution assay and MR imaging in vivo when the xenografts reached 5 to 7 mm in diameter. All procedures were approved by the Institutional Animal Care and Use Committee of Huazhong University of Science and Technology (approval no.270193).
(§2) The tumor-bearing SCID mice were randomly divided into groups, with 6 animals in each group, an injected via the tail vein with 50 μM Gd/kg EBP-Gd-DO3A, EBP-(Gd-DO3A)3, or Gadovist. At the selected time points (0.25, 0.5, 1, 2, 4, 8, 24, and 48 h) after injection, blood was collected and centrifuged to separate the plasma. Then, organ and tissue samples, including the kidneys, liver, heart, and tumor, were collected and weighed. The tissue samples were liquefied for 1 week and then transferred into centrifuge tubes and centrifuged at 14,000 rpm for 5 min. The resulting supernatants were diluted tenfold with deionized water and centrifuged again under the same conditions. The Gd concentration in the samples was measured by ICP-MS ([36]).

[3] = system: U138 MG tumor xenografts; experiment: In vivo biodistribution: tumor Gd content (ICP-MS); details: SCID mice, mean ± SD
Description: as §1, §2

[4] = system: MDA-MB-231 and U138 MG tumor xenografts; experiment: In vivo MR imaging of tumor xenografts; design: species or system SCID mice; details: i.v. 50 μM Gd/kg, 7 T T1-weighted MRI, n = 6; conjugates in MDA-MB-231 xenografts; imaged up to 4 h
Description: as §1, with “All procedures were approved by the Institutional Animal Care and Use Committee of Huazhong University of Science and Technology (approval no.270193).” left out
Tumor-bearing SCID mice were randomly grouped and scanned with a Bruker Biospec 7 T MRI scanner (Bruker Corp.) with a volume radio frequency (RF) coil. […] The parameters of the 2D T1-weighted gradient echo sequence were TR/TE = 151.2/1.9 ms, FOV = 3.0 cm, slice thickness = 1.2 mm, slice number = 20, average = 1, flip angle = 80°, and matrix = 128 × 128 ([28], [37]).The CNR were calculated with standard methods (CNR = [Stumor-Sbackground]/SDnoise).

[5] = 0.5 h after single i.v. 50 μM Gd/kg
[6] = 2 h after single i.v. 50 μM Gd/kg
[7] = 24 h after single i.v. 50 μM Gd/kg

Molecule	T1 signal intensity in cells with different levels of EGFR expression ([1]; 50 μM Gd, 24 h, ROI analysis, p > 0.05)	MRI signal of cells pretreated with versus without C225 [1]	Gd content in the kidneys [2, 5] [nM/g tissue]	Gd content in the kidneys [2, 6] [nM/g tissue]	Gd content in the kidneys [2, 7] [nM/g tissue]	Gd retention in the liver and heart ([2]; single i.v. 50 μM Gd/kg, compared with EBP-Gd-DO3A and EBP-(Gd-DO3A)3, ICP-MS)	plasma Gd level over time ([2]; single i.v. 50 μM Gd/kg)	Gd content in the U138 MG tumors [3, 5] [nM/g tissue]	Gd content in the U138 MG tumors [3, 6] [nM/g tissue]	Gd content in the U138 MG tumors [3, 7] [nM/g tissue]	time that tumor contrast enhancement persisted after injection [4] [h]	MR enhancement effect in MDA-MB-231, A549, SGC-7901 and SW480 tumor cells ([1]; 50 μM Gd, 24 h)	MR enhancement effect in U138MG cell line ([1]; 50 μM Gd, 24 h)	Gd content in the kidneys ([2]; 8 h after single i.v. 50 μM Gd/kg) [nM/g tissue]	Gd content in the kidneys ([2]; 4 h after single i.v. 50 μM Gd/kg) [nM/g tissue]
O=C([O-])CN1CCN(CC(=O)[O-])CCN([C@H](CO)[C@H](O)CO)CCN(CC(=O)[O-])CC1.[Gd+3] (racemic) [Gadovist, reference compound]	not significantly different	no significant difference	10.70 ± 2.10	8.73 ± 1.37	1.58 ± 0.72	relatively high at all time points	rapidly disappeared from circulation	8.70 ± 1.24	5.76 ± 0.45	0.90 ± 0.23	2				
CMYIEALDKYAC [EBP-(Gd-DO3A)3]		reduced		12.40 ± 1.60	3.50 ± 1.40		maintained at a high level for a much longer time					strong enhancement effects	much weaker enhancement effect	8.12 ± 1.28	
CMYIEALDKYAC [EBP-Gd-DO3A]		reduced		10.76 ± 1.14	2.52 ± 0.68		maintained at a high level for a much longer time					strong enhancement effects	much weaker enhancement effect		8.25 ± 0.75
